#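 Compound exposure: 48 hours, 5 concentrations, 96-well plates. GI50 = concentration required for 50% inhibition of growth.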 Calls of active or inactive are those of the source. Rule as the data show it: active = GI50 up to about 1.1 µM and inactive = higher.
# Tests used:
# Experiment in all cases: NCI-60 cell line screen, 48 h
# A498 = system: A498
# A549 = system: A549
# ACHN = system: ACHN
# BT-549 = system: BT-549
# CAKI-1 = system: CAKI-1
# CCRF-CEM = system: CCRF-CEM
# DU-145 = system: DU-145
# EKVX = system: EKVX
# HCT-15 = system: HCT-15
# HL-60 = system: HL-60
# HOP-62 = system: HOP-62
# HOP-92 = system: HOP-92
# HT-29 = system: HT-29
# IGROV-1 = system: IGROV-1
# K562 = system: K562
# KM12 = system: KM12
# LOX IMVI = system: LOX IMVI
# M14 = system: M14
# MDA-MB-231 = system: MDA-MB-231
# MDA-MB-435 = system: MDA-MB-435
# MDA-N = system: MDA-N
# MOLT-4 = system: MOLT-4
# Malme-3M = system: Malme-3M
# NCI-H226 = system: NCI-H226
# NCI-H23 = system: NCI-H23
# NCI-H460 = system: NCI-H460
# NCI-H522 = system: NCI-H522
# NCI/ADR-RES = system: NCI/ADR-RES
# OVCAR-3 = system: OVCAR-3
# OVCAR-4 = system: OVCAR-4
# OVCAR-5 = system: OVCAR-5
# OVCAR-8 = system: OVCAR-8
# PC-3 = system: PC-3
# RPMI-8226 = system: RPMI-8226
# RXF 393 = system: RXF 393
# SF-268 = system: SF-268
# SF-295 = system: SF-295
# SK-MEL-28 = system: SK-MEL-28
# SK-MEL-2 = system: SK-MEL-2
# SK-MEL-5 = system: SK-MEL-5
# SN12C = system: SN12C
# SNB-19 = system: SNB-19
# SNB-75 = system: SNB-75
# SR = system: SR
# SW-620 = system: SW-620
# T47D = system: T47D
# TK-10 = system: TK-10
# U-251 = system: U-251
# UACC-257 = system: UACC-257
# UACC-62 = system: UACC-62
# UO-31 = system: UO-31
# 786-0 = system: 786-0
# COLO 205 = system: COLO 205
# HCC 2998 = system: HCC 2998
# HCT-116 = system: HCT-116
# MCF7 = system: MCF7
# SF-539 = system: SF-539
# SK-OV-3 = system: SK-OV-3
structure (smiles),measurement,setting,value
c1ccc2c(c1)c1ccccc1n2Cn1c2ccccc2c2ccccc21,GI50,A498,> 100000 nM (inactive)
same,GI50,A549,> 100000 nM (inactive)
same,GI50,ACHN,> 100000 nM (inactive)
same,GI50,BT-549,> 100000 nM (inactive)
same,GI50,CAKI-1,> 100000 nM (inactive)
same,GI50,CCRF-CEM,> 100000 nM (inactive)
same,GI50,DU-145,> 100000 nM (inactive)
same,GI50,EKVX,> 100000 nM (inactive)
same,GI50,HCT-15,> 100000 nM
same,GI50,HL-60,> 100000 nM (inactive)
same,GI50,HOP-62,> 100000 nM (inactive)
same,GI50,HOP-92,> 100000 nM (inactive)
same,GI50,HT-29,> 100000 nM (inactive)
same,GI50,IGROV-1,> 100000 nM (inactive)
same,GI50,K562,> 100000 nM (inactive)
same,GI50,KM12,> 100000 nM (inactive)
same,GI50,LOX IMVI,> 100000 nM (inactive)
same,GI50,M14,> 100000 nM (inactive)
same,GI50,MDA-MB-231,> 100000 nM (inactive)
same,GI50,MDA-MB-435,> 100000 nM (inactive)
same,GI50,MDA-N,> 100000 nM (inactive)
same,GI50,MOLT-4,> 100000 nM (inactive)
same,GI50,Malme-3M,> 100000 nM (inactive)
same,GI50,NCI-H226,> 100000 nM (inactive)
same,GI50,NCI-H23,> 100000 nM (inactive)
same,GI50,NCI-H460,> 100000 nM (inactive)
same,GI50,NCI-H522,> 100000 nM (inactive)
same,GI50,NCI/ADR-RES,> 100000 nM (inactive)
same,GI50,OVCAR-3,> 100000 nM (inactive)
same,GI50,OVCAR-4,> 100000 nM (inactive)
same,GI50,OVCAR-5,> 100000 nM (inactive)
same,GI50,OVCAR-8,> 100000 nM (inactive)
same,GI50,PC-3,> 100000 nM (inactive)
same,GI50,RPMI-8226,> 100000 nM (inactive)
same,GI50,RXF 393,> 100000 nM (inactive)
same,GI50,SF-268,> 100000 nM (inactive)
same,GI50,SF-295,> 100000 nM (inactive)
same,GI50,SK-MEL-28,> 100000 nM (inactive)
same,GI50,SK-MEL-2,> 100000 nM (inactive)
same,GI50,SK-MEL-5,> 100000 nM (inactive)
same,GI50,SN12C,> 100000 nM (inactive)
same,GI50,SNB-19,> 100000 nM (inactive)
same,GI50,SNB-75,30800 nM (inactive)
same,GI50,SR,> 100000 nM (inactive)
same,GI50,SW-620,> 100000 nM (inactive)
same,GI50,T47D,> 100000 nM (inactive)
same,GI50,TK-10,> 100000 nM (inactive)
same,GI50,U-251,> 100000 nM (inactive)
same,GI50,UACC-257,> 100000 nM (inactive)
same,GI50,UACC-62,> 100000 nM (inactive)
same,GI50,UO-31,> 100000 nM (inactive)
CN(C)c1ccc(/C=c2/c3ccccc3n3c2cc(C24CC5CC(CC(C5)C2)C4)[n+]3C)cc1,GI50,786-0,126 nM (active)
same,GI50,A498,314 nM (active)
same,GI50,A549,205 nM (active)
same,GI50,ACHN,230 nM (active)
same,GI50,BT-549,245 nM (active)
same,GI50,CAKI-1,234 nM (active)
same,GI50,CCRF-CEM,117 nM (active)
same,GI50,COLO 205,87.7 nM (active)
same,GI50,DU-145,311 nM (active)
same,GI50,EKVX,344 nM (active)
same,GI50,HCC 2998,353 nM (active)
same,GI50,HCT-116,82.8 nM (active)
same,GI50,HCT-15,446 nM
same,GI50,HL-60,231 nM (active)
same,GI50,HOP-62,411 nM (active)
same,GI50,HOP-92,366 nM (active)
same,GI50,HT-29,299 nM (active)
same,GI50,IGROV-1,127 nM (active)
same,GI50,K562,99.8 nM (active)
same,GI50,KM12,156 nM (active)
same,GI50,LOX IMVI,326 nM (active)
same,GI50,M14,320 nM (active)
same,GI50,MCF7,61.5 nM (active)
same,GI50,MDA-MB-231,281 nM (active)
same,GI50,MDA-MB-435,176 nM (active)
same,GI50,MDA-N,330 nM (active)
same,GI50,MOLT-4,998 nM (active)
same,GI50,Malme-3M,527 nM (active)
same,GI50,NCI-H226,396 nM (active)
same,GI50,NCI-H23,261 nM (active)
same,GI50,NCI-H460,313 nM (active)
same,GI50,NCI-H522,92.3 nM (active)
same,GI50,NCI/ADR-RES,1520 nM (inactive)
same,GI50,OVCAR-3,476 nM (active)
same,GI50,OVCAR-4,337 nM (active)
same,GI50,OVCAR-5,409 nM (active)
same,GI50,OVCAR-8,129 nM (active)
same,GI50,PC-3,125 nM (active)
same,GI50,RPMI-8226,53 nM (active)
same,GI50,SF-268,555 nM (active)
same,GI50,SF-295,320 nM (active)
same,GI50,SF-539,123 nM (active)
same,GI50,SK-MEL-28,643 nM (active)
same,GI50,SK-MEL-2,313 nM (active)
same,GI50,SK-MEL-5,158 nM (active)
same,GI50,SK-OV-3,377 nM (active)
same,GI50,SN12C,324 nM (active)
same,GI50,SNB-19,266 nM (active)
same,GI50,SNB-75,394 nM (active)
same,GI50,SW-620,148 nM (active)
same,GI50,T47D,124 nM (active)
same,GI50,TK-10,390 nM (active)
same,GI50,U-251,66.4 nM (active)
same,GI50,UACC-257,251 nM (active)
same,GI50,UACC-62,345 nM (active)
same,GI50,UO-31,290 nM (active)
CC(NC(=O)c1ccc(OP(=O)(OCc2ccc([N+](=O)[O-])o2)N(C)CCCCCl)cc1)c1ccc(OCC2CCCCC2)c(C(N)=O)c1 (centres undefined),GI50,786-0,4320 nM (inactive)
same,GI50,A498,12900 nM (inactive)
same,GI50,A549,2700 nM (inactive)
same,GI50,ACHN,3930 nM (inactive)
same,GI50,BT-549,2360 nM (inactive)
same,GI50,CAKI-1,12400 nM (inactive)
same,GI50,COLO 205,2610 nM (inactive)
same,GI50,DU-145,4270 nM (inactive)
same,GI50,EKVX,14300 nM (inactive)
same,GI50,HCC 2998,3140 nM (inactive)
same,GI50,HCT-116,2880 nM (inactive)
same,GI50,HCT-15,2450 nM
same,GI50,HL-60,3330 nM (inactive)
same,GI50,HOP-62,7050 nM (inactive)
same,GI50,HOP-92,1190 nM (inactive)
same,GI50,HT-29,2630 nM (inactive)
same,GI50,IGROV-1,2750 nM (inactive)
same,GI50,K562,2420 nM (inactive)
same,GI50,KM12,3360 nM (inactive)
same,GI50,LOX IMVI,1870 nM (inactive)
same,GI50,M14,3670 nM (inactive)
same,GI50,MCF7,2770 nM (inactive)
same,GI50,MDA-MB-231,2580 nM (inactive)
same,GI50,MDA-MB-435,2380 nM (inactive)
same,GI50,MDA-N,2970 nM (inactive)
same,GI50,MOLT-4,1380 nM (inactive)
same,GI50,Malme-3M,2520 nM (inactive)
same,GI50,NCI-H226,3980 nM (inactive)
same,GI50,NCI-H23,5190 nM (inactive)
same,GI50,NCI-H460,3270 nM (inactive)
same,GI50,NCI-H522,2380 nM (inactive)
same,GI50,NCI/ADR-RES,> 36600 nM (inactive)
same,GI50,OVCAR-3,2570 nM (inactive)
same,GI50,OVCAR-4,2350 nM (inactive)
same,GI50,OVCAR-5,15200 nM (inactive)
same,GI50,OVCAR-8,4490 nM (inactive)
same,GI50,PC-3,3440 nM (inactive)
same,GI50,RPMI-8226,1030 nM (active)
same,GI50,RXF 393,2250 nM (inactive)
same,GI50,SF-268,2670 nM (inactive)
same,GI50,SF-295,9510 nM (inactive)
same,GI50,SF-539,2560 nM (inactive)
same,GI50,SK-MEL-28,2300 nM (inactive)
same,GI50,SK-MEL-2,3050 nM (inactive)
same,GI50,SK-MEL-5,1660 nM (inactive)
same,GI50,SK-OV-3,> 33100 nM (inactive)
same,GI50,SN12C,2250 nM (inactive)
same,GI50,SNB-19,16400 nM (inactive)
same,GI50,SNB-75,4560 nM (inactive)
same,GI50,SR,1730 nM (inactive)
same,GI50,SW-620,4580 nM (inactive)
same,GI50,T47D,2060 nM (inactive)
same,GI50,TK-10,6430 nM (inactive)
same,GI50,U-251,4290 nM (inactive)
same,GI50,UACC-257,3870 nM (inactive)
same,GI50,UACC-62,2290 nM (inactive)
same,GI50,UO-31,1830 nM (inactive)

# From ChEMBL document CHEMBL1201862, “PubChem BioAssay data set” (2004)
